According to paper PMC6934184, “Selective DNA-PKcs inhibition extends the therapeutic index of localized radiotherapy and chemotherapy” (The Journal of Clinical Investigation, 2019):

Biological target: T1, MYLK2 (skMLCK) (Homo sapiens, UniProt Q9H1R3)
T1 construct: purchased Thermo Fisher Scientific (Life Technologies) SelectScreen
Experiment: SelectScreen Z'LYTE
Assay type: biochemical
In short: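 Percent values come from Thermo SelectScreen profiling of NU5455, combining activity and binding assays. CSF1R was run in Z'LYTE format at Km app ATP, and CAMK1 in Adapta format with ATP listed at 10.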

T1 sequence (Q9H1R3 whole entry): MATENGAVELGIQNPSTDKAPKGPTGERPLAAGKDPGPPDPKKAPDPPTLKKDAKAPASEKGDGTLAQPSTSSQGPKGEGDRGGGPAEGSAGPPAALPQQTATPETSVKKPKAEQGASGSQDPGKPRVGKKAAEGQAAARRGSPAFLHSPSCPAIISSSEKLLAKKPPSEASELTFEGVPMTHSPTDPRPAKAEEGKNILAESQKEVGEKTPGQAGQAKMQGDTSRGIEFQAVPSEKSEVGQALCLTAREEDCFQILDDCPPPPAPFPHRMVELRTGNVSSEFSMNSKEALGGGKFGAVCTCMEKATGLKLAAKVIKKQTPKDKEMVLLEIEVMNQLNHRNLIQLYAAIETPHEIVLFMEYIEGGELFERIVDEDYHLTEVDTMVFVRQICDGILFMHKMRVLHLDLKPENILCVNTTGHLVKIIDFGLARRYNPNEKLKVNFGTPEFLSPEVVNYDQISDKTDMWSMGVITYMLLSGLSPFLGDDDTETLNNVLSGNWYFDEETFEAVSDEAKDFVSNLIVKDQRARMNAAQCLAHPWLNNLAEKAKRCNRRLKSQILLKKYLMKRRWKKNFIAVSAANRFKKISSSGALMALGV

## CN(C(=O)CN1CCOCC1)c1ccc2sc3c(-c4cccc5c(=O)cc(N6CC7CCC(C6)O7)oc45)cccc3c2c1 [NU5455]
  inhibition at 1 µM: -2.2%
